Data on four compounds can be found in US12569502B2, “Use of bile acids and derivatives thereof in preparation of GPR39 agonist” (PEKING UNIVERSITY, priority 2019, dated 2026).

Bounds are passed on as bounds.

For one test, the target named is T1, GPR39 receptors on m39-20 cell lines (Mus musculus, UniProt Q5U431, T447P).
T1 construct: P2A-mCherry (C); expressed in transfected cells
T1 sequence (Q5U431 1-456 T447P): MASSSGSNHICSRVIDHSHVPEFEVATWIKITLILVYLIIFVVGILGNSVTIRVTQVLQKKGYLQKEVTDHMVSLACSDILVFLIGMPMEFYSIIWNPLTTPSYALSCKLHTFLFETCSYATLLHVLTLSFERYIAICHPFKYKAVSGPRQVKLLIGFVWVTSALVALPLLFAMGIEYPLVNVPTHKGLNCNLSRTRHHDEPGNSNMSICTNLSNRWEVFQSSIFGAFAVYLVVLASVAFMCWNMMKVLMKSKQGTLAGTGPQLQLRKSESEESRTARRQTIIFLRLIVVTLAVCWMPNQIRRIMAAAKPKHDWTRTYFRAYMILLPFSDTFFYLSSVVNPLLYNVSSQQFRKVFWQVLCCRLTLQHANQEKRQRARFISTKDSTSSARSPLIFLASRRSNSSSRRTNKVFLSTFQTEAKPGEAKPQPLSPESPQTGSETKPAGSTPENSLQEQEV
The experiment in a line: FLIPR calcium imaging on m39-20 cell lines stably expressing murine-derived GPR39. Particulars: Bile acid + 4 μM zinc ions EC50, m39-20 cells, 4 μM zinc ions. The format is cell-based. From the text:
Intracellular calcium imaging is a routine technique to study cell functions, the basic principle of which is to detect the concentration of the calcium ion in tissues or cells using a calcium indicator, thereby reflecting certain reactions in the tissues or cells. In the present application, the intracellular calcium released from a cell line that stably or transiently expresses GPR39 is detected using Fluo8-AM, a calcium fluorescent indicator, so as to determine the activation of the GPR39 receptor by the bile acid and derivative thereof.
HEK293T cells (purchased from ATCC) were seeded in a 6-well plate (coming Co.) at an appropriate density (about 0.5-2×10^5/well). When the cell density reached above 30%, the plasmid PLVXK-mGPR39-P2A-mCherry was transfected with Lipofectamine 3000 (Invitrogen) at a concentration of 2 μg per well. The cells were passaged 24 hours after transfection, the puromycin (gibco) was added into the medium at a concentration of 2 μg/mL for antibiotic screening of cells. After 2-4 days of continuous screening, the cells screened for puromycin resistance were trypsinized and screened by flow cytometry for monoclones with red fluorescence. And these monoclones were seeded in a 96-well plate and cultured in a medium without puromycin for around 10 days. Cell colonies with red fluorescence were sorted under a fluorescence microscope, trypsinized and then passaged and expanded in a 6-well plate. Cell lines m39-20 stably expressing murine-derived GPR39 were obtained through the above methods.
Calcium dye Fluo8-AM (ATT bioquest Co.) was dissolved in DMSO solvent to formulate a stock solution of 1 μg/μL. […] After then, the calcium dye working solution was replaced with the 4K solution (50 μL per well), and acclimated for 5 min at room temperature for the subsequent calcium imaging experiment.
Bile acids and derivatives thereof as listed in Table 1 below were dissolved in dimethyl sulfoxide (DMSO, Sigma Co.) solvent to formulate a stock solution of 50 mM, which was stored at −20° C. During calcium imaging with FLIPR, the drug was diluted with the above 4K solution into a working concentration of 400 μM, and packaged into another 96-well plate. […] The instrument parameters were set so that 50 μL of the drug solution may be added into the culture wells within 2 s. The fluorescence recording result within the first 30 seconds was used as the baseline value. The FLIPR robot arm was programmed to automatically add bile acids and derivatives thereof into the cell sample culture wells at the 31st second. 1% of DMSO solvent was used as the blank control.
After that, the calcium dye working solution was replaced with a 4K solution containing 4 μM zinc ions (50 μL per well), followed by acclimation for 5 min at room temperature.
For the compound `C[C@H](CCC(=O)O)[C@H]1CC[C@H]2[C@@H]3CC[C@@H]4C[C@H](OS(=O)(=O)O)CC[C@]4(C)[C@H]3C[C@H](O)[C@]12C` [DCAS], the half-maximal effective concentration (EC50) was 37.8 ± 1 µM.
Still for that read-out and setting: the figure for `C[C@H](CCC(=O)NCCS(=O)(=O)O)[C@H]1CC[C@H]2[C@@H]3[C@H](O)C[C@@H]4C[C@H](OS(=O)(=O)O)CC[C@]4(C)[C@H]3CC[C@]12C` [TCDCAS] is greater than 100 µM; for `C[C@H](CCC(=O)NCCS(=O)(=O)O)[C@H]1CC[C@H]2[C@@H]3[C@H](O)C[C@@H]4C[C@H](O)CC[C@]4(C)[C@H]3C[C@H](O)[C@]12C` [TCA] it is greater than 100 µM.
As to `C[C@H](CCC(=O)NCCS(=O)(=O)O)[C@H]1CC[C@H]2[C@@H]3CC[C@@H]4C[C@H](O)CC[C@]4(C)[C@H]3CC[C@]12C` [TLCA], the EC50 worked out at 8.1 ± 2.4 µM.

Still in this test, the particulars now being: FIG. 1.
Turning to `C[C@H](CCC(=O)O)[C@H]1CC[C@H]2[C@@H]3CC[C@@H]4C[C@H](OS(=O)(=O)O)CC[C@]4(C)[C@H]3C[C@H](O)[C@]12C` [DCAS], the “intracellular calcium signals in m39-20 cell lines” value was “varying extents of intracellular calcium signals”.
Same read-out and setting: the result for `C[C@H](CCC(=O)NCCS(=O)(=O)O)[C@H]1CC[C@H]2[C@@H]3[C@H](O)C[C@@H]4C[C@H](OS(=O)(=O)O)CC[C@]4(C)[C@H]3CC[C@]12C` [TCDCAS] reads “varying extents of intracellular calcium signals”; that for `C[C@H](CCC(=O)NCCS(=O)(=O)O)[C@H]1CC[C@H]2[C@@H]3[C@H](O)C[C@@H]4C[C@H](O)CC[C@]4(C)[C@H]3C[C@H](O)[C@]12C` [TCA], “varying extents of intracellular calcium signals”.
For the compound `C[C@H](CCC(=O)NCCS(=O)(=O)O)[C@H]1CC[C@H]2[C@@H]3CC[C@@H]4C[C@H](O)CC[C@]4(C)[C@H]3CC[C@]12C` [TLCA], the “intracellular calcium signals in m39-20 cell lines” value is “varying extents of intracellular calcium signals”.

Staying with this test, now noted: Only bile acid EC50, m39-20 cells, no zinc ions.
As to `C[C@H](CCC(=O)NCCS(=O)(=O)O)[C@H]1CC[C@H]2[C@@H]3[C@H](O)C[C@@H]4C[C@H](O)CC[C@]4(C)[C@H]3C[C@H](O)[C@]12C` [TCA], the EC50 is greater than 200 µM.

Still in this test, the particulars now being: activation efficacy, m39-20 cells, 4 μM zinc ions.
In the case of `C[C@H](CCC(=O)O)[C@H]1CC[C@H]2[C@@H]3CC[C@@H]4C[C@H](OS(=O)(=O)O)CC[C@]4(C)[C@H]3C[C@H](O)[C@]12C` [DCAS], the “Bile acid + 4 μM zinc ions Efficacy” value came to 81.9 ± 2.2%.
Same read-out and setting: the figure for `C[C@H](CCC(=O)NCCS(=O)(=O)O)[C@H]1CC[C@H]2[C@@H]3[C@H](O)C[C@@H]4C[C@H](OS(=O)(=O)O)CC[C@]4(C)[C@H]3CC[C@]12C` [TCDCAS] is 39.7 ± 3.3%.
Still for that read-out and setting: the figure for `C[C@H](CCC(=O)NCCS(=O)(=O)O)[C@H]1CC[C@H]2[C@@H]3[C@H](O)C[C@@H]4C[C@H](O)CC[C@]4(C)[C@H]3C[C@H](O)[C@]12C` [TCA] is 31.8 ± 3%; for `C[C@H](CCC(=O)NCCS(=O)(=O)O)[C@H]1CC[C@H]2[C@@H]3CC[C@@H]4C[C@H](O)CC[C@]4(C)[C@H]3CC[C@]12C` [TLCA] it is 103.5 ± 1.1%.

Still in this test, the particulars now being: activation efficacy, m39-20 cells, no zinc ions.
For the compound `C[C@H](CCC(=O)O)[C@H]1CC[C@H]2[C@@H]3CC[C@@H]4C[C@H](OS(=O)(=O)O)CC[C@]4(C)[C@H]3C[C@H](O)[C@]12C` [DCAS], the “Only bile acid Efficacy” value is on record as 0%.
Still for that read-out and setting: the result for `C[C@H](CCC(=O)NCCS(=O)(=O)O)[C@H]1CC[C@H]2[C@@H]3[C@H](O)C[C@@H]4C[C@H](OS(=O)(=O)O)CC[C@]4(C)[C@H]3CC[C@]12C` [TCDCAS] reads 0%; that for `C[C@H](CCC(=O)NCCS(=O)(=O)O)[C@H]1CC[C@H]2[C@@H]3[C@H](O)C[C@@H]4C[C@H](O)CC[C@]4(C)[C@H]3C[C@H](O)[C@]12C` [TCA], 0%; that for `C[C@H](CCC(=O)NCCS(=O)(=O)O)[C@H]1CC[C@H]2[C@@H]3CC[C@@H]4C[C@H](O)CC[C@]4(C)[C@H]3CC[C@]12C` [TLCA], 47.8 ± 1.1%.

Still in this test, the particulars now being: m39-20 cells, Table 1, FIG. 2.
As to `C[C@H](CCC(=O)O)[C@H]1CC[C@H]2[C@@H]3CC[C@@H]4C[C@H](OS(=O)(=O)O)CC[C@]4(C)[C@H]3C[C@H](O)[C@]12C` [DCAS], the “change of activation efficacy after the addition of zinc ions” value is given as “obviously improved”.
With `C[C@H](CCC(=O)NCCS(=O)(=O)O)[C@H]1CC[C@H]2[C@@H]3[C@H](O)C[C@@H]4C[C@H](OS(=O)(=O)O)CC[C@]4(C)[C@H]3CC[C@]12C` [TCDCAS], the “change of activation efficacy after the addition of zinc ions” value is “obviously improved”.
The same measure, in the same setting: the entry for `C[C@H](CCC(=O)NCCS(=O)(=O)O)[C@H]1CC[C@H]2[C@@H]3[C@H](O)C[C@@H]4C[C@H](O)CC[C@]4(C)[C@H]3C[C@H](O)[C@]12C` [TCA] is “obviously improved”.

Staying with this test, now noted: m39-20 cells, no zinc ions; read-out: Only bile acid EC50.
Consider `C[C@H](CCC(=O)O)[C@H]1CC[C@H]2[C@@H]3CC[C@@H]4C[C@H](OS(=O)(=O)O)CC[C@]4(C)[C@H]3C[C@H](O)[C@]12C` [DCAS], for which the EC50 was greater than 200 µM.
On the same count and under the same terms, the result for `C[C@H](CCC(=O)NCCS(=O)(=O)O)[C@H]1CC[C@H]2[C@@H]3[C@H](O)C[C@@H]4C[C@H](OS(=O)(=O)O)CC[C@]4(C)[C@H]3CC[C@]12C` [TCDCAS] reads greater than 200 µM.
`C[C@H](CCC(=O)NCCS(=O)(=O)O)[C@H]1CC[C@H]2[C@@H]3CC[C@@H]4C[C@H](O)CC[C@]4(C)[C@H]3CC[C@]12C` [TLCA]: the concentration giving a half-maximal response (EC50) is 44 ± 10 µM.
